Measured values published in patent US10538512B2, “Aminoacylindazole immunomodulators for treatment of autoimmune diseases” (The Rockefeller University, priority 2016, dated 2020).

Target: T1, Human FXIIa (Homo sapiens, UniProt P00748)
T1 construct: active coagulation factor XII (FXIIa); purchased Enzyme Research Labs
T1 sequence (P00748 373-615 limits assumed): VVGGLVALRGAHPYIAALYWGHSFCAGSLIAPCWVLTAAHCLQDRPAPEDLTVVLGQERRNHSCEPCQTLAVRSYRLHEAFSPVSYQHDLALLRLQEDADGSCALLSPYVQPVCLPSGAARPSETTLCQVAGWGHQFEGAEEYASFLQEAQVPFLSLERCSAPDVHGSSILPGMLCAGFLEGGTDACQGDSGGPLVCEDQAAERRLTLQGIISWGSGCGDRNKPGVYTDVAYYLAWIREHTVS
T1 sequence (P00748 20-372 partner limits assumed): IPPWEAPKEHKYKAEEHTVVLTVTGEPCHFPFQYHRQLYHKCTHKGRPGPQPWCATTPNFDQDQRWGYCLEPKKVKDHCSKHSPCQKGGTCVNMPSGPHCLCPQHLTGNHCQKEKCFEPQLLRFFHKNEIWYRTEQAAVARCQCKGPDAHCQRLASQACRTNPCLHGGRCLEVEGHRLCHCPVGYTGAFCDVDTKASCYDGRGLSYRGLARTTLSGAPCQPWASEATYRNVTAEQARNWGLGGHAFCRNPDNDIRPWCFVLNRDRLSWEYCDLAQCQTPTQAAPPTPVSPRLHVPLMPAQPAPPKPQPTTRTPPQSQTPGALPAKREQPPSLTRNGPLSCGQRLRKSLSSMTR
Experiment: Factor XIIa (FXIIa) inhibitory activity, chromogenic substrate assay
Assay type: biochemical
Details: Human FXIIa 12.5 nM, Pefachrome XIIa 400 μM, 10 min preincubation
Procedure: Factor XIIa (FXIIa) Inhibitory Activity:
In a 96-well clear bottom plate, 80 μl of assay buffer was added to each well. Assay buffer consists of 0.5× Hank's Balanced Salt Solution (Invitrogen), buffered with 25 mM HEPES pH 7.4 (Invitrogen) and 0.5× Tris-buffered saline with Tween-20 0.05% (Santa Cruz Biotechnology). Test compounds were first dissolved in DMSO (Sigma) and then 4 μl were added to test wells containing assay buffer. Serial dilutions using an automated multi-channel pipette were used to generate a concentration range of approximately 1-100 μM. […] 80 μl of this enzyme solution was added to the assay wells. The enzyme/compound mixtures were incubated for 10 minutes at room temperature. Chromogenic substrate (Pefachrome XIIa; Enzyme Research Labs) was added to assay wells at a final concentration of 400 μM. The assay plate was spun for 1 minute at 1500 g and then read at 37° C. in a SpectraMax M2 plate reader (λ=405 nm). Activity was quantified as the rate of change in absorbance, which corresponds to the rate of substrate cleavage.

IC50	SMILES
> 90 µM	Nc1nn(C(=O)[C@H]2CCNc3ccc(F)cc32)c2c1C[C@H](O)CC2 (relative stereo) [Example 131, ((5R*)-3-amino-5-hydroxy-4,5,6,7-tetrahydro-2H-indazol-1-yl)((4S*)-6-fluoro-1,2,3,4-tetrahydroquinolin-4-yl)methanone]
> 90 µM	Nc1nn(C(=O)[C@@H]2CCNc3ccc(F)cc32)c2c1C[C@H](O)CC2 (relative stereo) [Example 132, ((5R*)-3-amino-5-hydroxy-4,5,6,7-tetrahydro-2H-indazol-1-yl)((4R*)-6-fluoro-1,2,3,4-tetrahydroquinolin-4-yl)methanone]
0.06 µM	Cc1cccc2c1NCC[C@@H]2C(=O)n1nc2c(c1N)C[C@@H](N)CC2 (relative stereo) [Example 213, ((5S*)-3,5-diamino-4,5,6,7-tetrahydroindazol-2-yl)((4S*)-8-methyl-1,2,3,4-tetrahydroquinolin-4-yl)methanone]
0.07 µM	Nc1c2c(nn1C(=O)[C@H]1CCNc3c(Cl)cccc31)CC[C@H](N)C2 (relative stereo) [Example 215, ((4S*)-8-chloro-1,2,3,4-tetrahydroquinolin-4-yl)((5S*)-3,5-diamino-4,5,6,7-tetrahydroindazol-2-yl)methanone]
3 µM	Nc1c2c(nn1C(=O)[C@@H]1CCNc3c(Cl)cccc31)CC[C@H](N)C2 (relative stereo) [Example 216, ((4R*)-8-chloro-1,2,3,4-tetrahydroquinolin-4-yl)((5S*)-3,5-diamino-4,5,6,7-tetrahydroindazol-2-yl)methanone]
15 µM	Cc1csc(C)c1C(=O)n1nc2c(c1N)CCCC2 (single isomer, unassigned) [Example 16, (3-Amino-4,5,6,7-tetrahydroindazol-2-yl)(2,4-dimethylthiophen-3-yl)methanone]
0.3 µM	CN1CCC(C(=O)n2nc3c(c2N)CCCC3)c2ccccc21 (single isomer, unassigned) [Example 25, (3-Amino-4,5,6,7-tetrahydroindazol-2-yl)(1-methyl-1,2,3,4-tetrahydroquinolin-4-yl)methanone]
0.2 µM	Nc1c2c(nn1C(=O)c1cccc3c1CC(=O)N3)CCCC2 (single isomer, unassigned) [Example 64, 4-(3-amino-4,5,6,7-tetrahydro-2H-indazole-2-carbonyl)indolin-2-one]
0.01 µM	CCc1cc2c(C(=O)n3nc4c(c3N)CCCC4)cccc2n1C (single isomer, unassigned) [Example 66, (3-amino-4,5,6,7-tetrahydroindazol-2-yl)(2-ethyl-1-methyl-1H-indol-4-yl)methanone]
0.15 µM	CN1CCC(C(=O)n2nc3c(c2N)CCCC3)c2ccccc21 (single isomer, unassigned) [Example 72, (S*)-(3-amino-4,5,6,7-tetrahydroindazol-2-yl)(1-methyl-1,2,3,4-tetrahydroquinolin-4-yl)methanone]
0.15 µM	Nc1c2c(nn1C(=O)C1CCNc3ccccc31)CCCC2 (single isomer, unassigned) [Example 78, (R*)-(3-amino-4,5,6,7-tetrahydroindazol-2-yl)(1,2,3,4-tetrahydroquinolin-4-yl)methanone]
0.02 µM	CCc1cc2c([nH]1)CCCC2C(=O)n1nc2c(c1N)CCCC2 (single isomer, unassigned) [Example 83, (S*)-(3-amino-4,5,6,7-tetrahydroindazol-2-yl)(2-ethyl-4,5,6,7-tetrahydro-1H-indol-4-yl)methanone]
3.3 µM	CCc1cc2c([nH]1)CCCC2C(=O)n1nc2c(c1N)CCCC2 (single isomer, unassigned) [Example 84, (R*)-(3-amino-4,5,6,7-tetrahydroindazol-2-yl)(2-ethyl-4,5,6,7-tetrahydro-1H-indol-4-yl)methanone]
0.25 µM	Nc1c2c(nn1C(=O)C1CCCc3[nH]ccc31)CCCC2 (single isomer, unassigned) [Example 94, (S*)-(3-amino-4,5,6,7-tetrahydroindazol-2-yl)(4,5,6,7-tetrahydro-1H-indol-4-yl)methanone]
0.4 µM	Cn1ccc2c1CCCC2C(=O)n1nc2c(c1N)CCCC2 (single isomer, unassigned) [Example 97, (S*)-(3-amino-4,5,6,7-tetrahydroindazol-2-yl)(1-methyl-4,5,6,7-tetrahydro-1H-indol-4-yl)methanone]
0.04 µM	Nc1c2c(nn1C(=O)C1CCCc3[nH]c(Cl)cc31)CCCC2 (single isomer, unassigned) [Example 106, (S*)-(3-amino-4,5,6,7-tetrahydro-2H-indazol-2-yl)(2-chloro-4,5,6,7-tetrahydro-1H-indol-4-yl)methanone]
8 µM	Nc1c2c(nn1C(=O)C1CCCc3[nH]c(Cl)cc31)CCCC2 (single isomer, unassigned) [Example 107, (R*)-(3-amino-4,5,6,7-tetrahydro-2H-indazol-2-yl)(2-chloro-4,5,6,7-tetrahydro-1H-indol-4-yl)methanone]
0.07 µM	Nc1c2c(nn1C(=O)C1CCCc3[nH]c(Br)cc31)CCCC2 (single isomer, unassigned) [Example 108, (S*)-(3-amino-4,5,6,7-tetrahydroindazol-2-yl)(2-bromo-4,5,6,7-tetrahydro-1H-indol-4-yl)methanone]
45 µM	Nc1c2c(nn1C(=O)[C@@H]1CCNc3ccc(F)cc31)CC[C@@H](O)C2 (single isomer, unassigned) [Example 130, ((5R*)-3-amino-5-hydroxy-4,5,6,7-tetrahydro-2H-indazol-2-yl)(4(R*)-6-fluoro-1,2,3,4-tetrahydroquinolin-4-yl)methanone]
33 µM	Nc1c2c(nn1C(=O)[C@H]1CCNc3ccc(F)cc31)CC[C@H](O)C2 (single isomer, unassigned) [Example 133, ((5S*)-3-amino-5-hydroxy-4,5,6,7-tetrahydroindazol-2-yl)((4S*)-6-fluoro-1,2,3,4-tetrahydroquinolin-4-yl)methanone]
24 µM	Nc1nn(C(=O)[C@H]2CCNc3ccc(F)cc32)c2c1C[C@@H](O)CC2 (single isomer, unassigned) [Example 135, ((5S*)-3-amino-5-hydroxy-4,5,6,7-tetrahydro-1H-indazol-1-yl)((4S*)-6-fluoro-1,2,3,4-tetrahydroquinolin-4-yl)methanone]
> 90 µM	Nc1nn(C(=O)[C@@H]2CCNc3ccc(F)cc32)c2c1C[C@@H](O)CC2 (single isomer, unassigned) [Example 136, ((5S*)-3-amino-5-hydroxy-4,5,6,7-tetrahydroindazol-1-yl)((4R*)-6-fluoro-1,2,3,4-tetrahydroquinolin-4-yl)methanone]
16 µM	Nc1c2c(nn1C(=O)[C@@H]1CCNc3ccc(F)cc31)CC[C@@H](F)C2 (single isomer, unassigned) [Example 138, ((5R*)-3-amino-5-fluoro-4,5,6,7-tetrahydroindazol-2-yl)((4R*)-6-fluoro-1,2,3,4-tetrahydroquinolin-4-yl)methanone]
85 µM	Nc1nn(C(=O)C2CCNc3ccc(F)cc32)c2c1CC(F)CC2 (single isomer, unassigned) [Example 139, ((5R*)-3-amino-5-fluoro-4,5,6,7-tetrahydroindazol-1-yl)((4RS)-6-fluoro-1,2,3,4-tetrahydroquinolin-4-yl)methanone]
17 µM	Nc1c2c(nn1C(=O)[C@@H]1CCNc3ccc(F)cc31)CC[C@H](F)C2 (single isomer, unassigned) [Example 141, ((5S*)-3-amino-5-fluoro-4,5,6,7-tetrahydroindazol-2-yl)((4R*)-6-fluoro-1,2,3,4-tetrahydroquinolin-4-yl)methanone]
65 µM	Nc1nn(C(=O)C2CCNc3ccc(F)cc32)c2c1CC(F)CC2 (single isomer, unassigned) [Example 142, ((5S*)-3-amino-5-fluoro-4,5,6,7-tetrahydroindazol-1-yl)((4R/S)-6-fluoro-1,2,3,4-tetrahydroquinolin-4-yl)methanone]
9 µM	Nc1c2c(nn1C(=O)[C@@H]1CCNc3ccc(Cl)cc31)CC[C@H](O)C2 (single isomer, unassigned) [Example 144, ((5S*)-3-amino-5-hydroxy-4,5,6,7-tetrahydroindazol-2-yl)((4R*)-6-chloro-1,2,3,4-tetrahydroquinolin-4-yl)methanone]
> 80 µM	Nc1nn(C(=O)[C@@H]2CCNc3ccc(Cl)cc32)c2c1C[C@@H](O)CC2 (single isomer, unassigned) [Example 145, ((5S*)-3-amino-5-hydroxy-4,5,6,7-tetrahydroindazol-1-yl)((4R*)-6-chloro-1,2,3,4-tetrahydroquinolin-4-yl)methanone]
